# Values quoted from earlier work as cited in publication PMC6987128, “Target protein-oriented isolation of Hes1 dimer inhibitors using protein based methods” (Scientific Reports, 2020).
# Test system: NSCs
# Settings: cited from earlier work
row,Compound,differentiation of NSCs to neurons
1,COc1ccc(-c2cc(=O)c3c(O[C@@H]4O[C@H](CO[C@@H]5OC[C@@H](O)[C@H](O)[C@H]5O)[C@@H](O)[C@H](O)[C@H]4O)cc(OC)cc3o2)cc1 [agalloside],accelerated the differentiation of NSCs to neurons
2,CCCC(=O)/C=C/C1=C(O)C(=O)c2cc(O)c(O)cc2C1=O [Lindbladione],accelerated the differentiation of NSCs to neurons
3,isomicromonolactam,accelerated the differentiation of NSCs to neurons
